Test results published in PubChem BioAssay AID330 (DTP/NCI, 2004).
Values joined by “and” are separate entries in the source; they are usually repeats but may differ in a detail not shown here. Equal values may be shown once. Toxic doses and inconclusive results are not listed.

System: P388 leukemia ip, CD2F1 mice, survival T/C
Experiment: NCI In Vivo Anticancer Drug Screen. Data for tumor model P388 Leukemia (intraperitoneal) in CD2F1 (CDF1) mice
Settings: endpoint: median survival time, higher = longer survival
Method in brief: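 Mice carrying the transplanted tumor received test compound or vehicle. Survival was recorded in each group, and the value is the treated-group measurement divided by that of the vehicle-treated control group.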

[1] = dose: 12.5 mg/kg/injection, schedule: Q01DX009 (ip), vehicle: saline with Tween-80
[2] = dose: 25.0 mg/kg/injection, schedule: Q01DX009 (ip), vehicle: saline with Tween-80
[3] = dose: 50.0 mg/kg/injection, schedule: Q01DX009 (ip), vehicle: saline with Tween-80
[4] = dose: 50.0 mg/kg/injection, schedule: Q01DX005 (ip), vehicle: Klucel (hydroxypropylcellulose) (HPC)
[5] = dose: 100.0 mg/kg/injection, schedule: Q01DX005 (ip), vehicle: Klucel (hydroxypropylcellulose) (HPC)
[6] = dose: 200.0 mg/kg/injection, schedule: Q01DX005 (ip), vehicle: Klucel (hydroxypropylcellulose) (HPC)
[7] = dose: 100.0 mg/kg/injection, schedule: Q04DX003 (ip), vehicle: saline with Tween-80
[8] = dose: 12.5 mg/kg/injection, schedule: Q01DX009 (ip), vehicle: Klucel (hydroxypropylcellulose) (HPC)
[9] = dose: 200.0 mg/kg/injection, schedule: Q01DX001 (ip), vehicle: Klucel (hydroxypropylcellulose) (HPC)
[10] = dose: 50.0 mg/kg/injection, schedule: Q01DX005 (ip), vehicle: saline with Tween-80
[11] = dose: 100.0 mg/kg/injection, schedule: Q01DX005 (ip), vehicle: saline with Tween-80
[12] = dose: 200.0 mg/kg/injection, schedule: Q01DX005 (ip), vehicle: saline with Tween-80
[13] = dose: 60.0 mg/kg/injection, schedule: Q01DX005 (ip), vehicle: Klucel (hydroxypropylcellulose) (HPC)
[14] = dose: 120.0 mg/kg/injection, schedule: Q01DX005 (ip), vehicle: Klucel (hydroxypropylcellulose) (HPC)

O=C(O)C(Cc1ccc(N(CCCl)CCCl)cc1)C(=O)O was tested, and the T/C [1] was 161 % of control, the T/C [2] was 171 % of control and the T/C [3] was 189 % of control and 213 % of control.
For CCCCCCN1CCN(Cc2ccc(N(CC)CC)cc2)C(=O)C1=O, the T/C [4] was 91 % of control, the T/C [5] was 100 % of control and the T/C [6] was 105 % of control.
With CCCn1c(Cl)c(/C=N\Nc2ccc([N+](=O)[O-])cc2[N+](=O)[O-])c2ccccc21 the T/C [7] was 92 % of control, the T/C (dose: 200.0 mg/kg/injection, schedule: Q04DX003 (ip), vehicle: saline with Tween-80) was 97 % of control and the T/C (dose: 400.0 mg/kg/injection, schedule: Q04DX003 (ip), vehicle: saline with Tween-80) was 92 % of control.
With O=c1oc(-c2ccco2)ns1 the T/C [8] was 97 % of control, the T/C (dose: 25.0 mg/kg/injection, schedule: Q01DX009 (ip), vehicle: Klucel (hydroxypropylcellulose) (HPC)) was 110 % of control and the T/C (dose: 50.0 mg/kg/injection, schedule: Q01DX009 (ip), vehicle: Klucel (hydroxypropylcellulose) (HPC)) was 97 % of control.
CN(N=O)C(=O)NNC(=O)N(C)N=O was tested, and the T/C (dose: 15.0 mg/kg/injection, schedule: Q04DX003 (ip), vehicle: saline with Tween-80) was 105 % of control, the T/C (dose: 30.0 mg/kg/injection, schedule: Q01DX009 (ip), vehicle: saline with Tween-80) was 100 % of control and the T/C (dose: 30.0 mg/kg/injection, schedule: Q04DX003 (ip), vehicle: saline with Tween-80) was 110 % of control. For the same compound, the T/C (dose: 39.6 mg/kg/injection, schedule: Q04DX003 (ip), vehicle: saline with Tween-80) was 109 % of control and the T/C (dose: 60.0 mg/kg/injection, schedule: Q04DX003 (ip), vehicle: saline with Tween-80) was 113 % of control.
In the case of C=CC(C#N)(C=C)C=C, the T/C [1] was 104 % of control, the T/C [2] was 103 % of control and the T/C [3] was 108 % of control.
Cn1c(Cl)c(/C=N\Nc2ccc([N+](=O)[O-])cc2)c2ccccc21 was tested, and the T/C (dose: 50.0 mg/kg/injection, schedule: Q01DX001 (ip), vehicle: Klucel (hydroxypropylcellulose) (HPC)) was 89 % of control, the T/C (dose: 100.0 mg/kg/injection, schedule: Q01DX001 (ip), vehicle: Klucel (hydroxypropylcellulose) (HPC)) was 89 % of control and the T/C [9] was 100 % of control.
For CCC1(C(=O)OC)CCc2c(cc(OC)c3ccccc23)C1=O (stereo not given), the T/C [4] was 87 % of control, the T/C [5] was 87 % of control and the T/C [6] was 89 % of control.
In the case of CSC(SC)(SC)c1cc(-c2c(Cl)cccc2Cl)no1, the T/C [10] was 93 % of control, the T/C [11] was 102 % of control and the T/C [12] was 93 % of control.
In the case of O=C(c1ccccc1)c1no[n+]([O-])c1C(=O)c1ccccc1, the T/C (dose: 3.12 mg/kg/injection, schedule: Q01DX009 (ip), vehicle: Klucel (hydroxypropylcellulose) (HPC)) was 102 % of control and 114 % of control and 116 % of control, the T/C (dose: 6.25 mg/kg/injection, schedule: Q01DX009 (ip), vehicle: Klucel (hydroxypropylcellulose) (HPC)) was 100 % of control and 117 % of control and the T/C [8] was 105 % of control and 123 % of control.
CSC1(SC2=NCCN2)SC2(NCCN2)S1 was tested, and the T/C [9] was 86 % of control and the T/C (dose: 400.0 mg/kg/injection, schedule: Q01DX001 (ip), vehicle: Klucel (hydroxypropylcellulose) (HPC)) was 90 % of control.
For O=C(CN1CCNCC1)N1CCOCC1, the T/C (dose: 50.0 mg/kg/injection, schedule: Q01DX005 (ip), vehicle: saline) was 100 % of control, the T/C (dose: 100.0 mg/kg/injection, schedule: Q01DX005 (ip), vehicle: saline) was 102 % of control and the T/C (dose: 200.0 mg/kg/injection, schedule: Q01DX005 (ip), vehicle: saline) was 97 % of control.
CCCCCc1cc(/C=C2/N=C(c3ccc[nH]3)C=C2OC)[nH]c1C was tested, and the T/C (dose: 1.5 mg/kg/injection, schedule: Q01DX009 (ip), vehicle: saline) was 114 % of control, the T/C (dose: 3.0 mg/kg/injection, schedule: Q01DX009 (ip), vehicle: saline) was 120 % of control and 123 % of control and the T/C (dose: 6.0 mg/kg/injection, schedule: Q01DX009 (ip), vehicle: saline) was 107 % of control.
With NC(CCC(=O)NC(CSC(c1ccccc1)(c1ccccc1)c1ccccc1)C(=O)NCC(=O)O)C(=O)O (stereo not given) the T/C [13] was 101 % of control and 115 % of control and the T/C [14] was 101 % of control and 113 % of control.
In the case of O=C1CCc2ccccc2C1C(=O)CC(O)(c1ccccc1)c1ccccc1 (stereo not given), the T/C (dose: 12.5 mg/kg/injection, schedule: Q01DX009 (ip), vehicle: saline sonified) was 95 % of control, the T/C (dose: 25.0 mg/kg/injection, schedule: Q01DX009 (ip), vehicle: saline sonified) was 100 % of control and the T/C (dose: 50.0 mg/kg/injection, schedule: Q01DX009 (ip), vehicle: saline sonified) was 95 % of control.
O=C(NNc1ncccn1)c1ccc(C(=O)NNc2ncccn2)cc1 was tested, and the T/C (dose: 7.5 mg/kg/injection, schedule: Q01DX005 (ip), vehicle: saline with Tween-80) was 94 % of control and the T/C (dose: 15.0 mg/kg/injection, schedule: Q01DX005 (ip), vehicle: saline with Tween-80) was 93 % of control.
With Cc1[nH]c2ccc(N(C)C)cc2c(=O)c1CN(CCO)CCO the T/C [10] was 108 % of control, the T/C [11] was 100 % of control and the T/C [12] was 100 % of control.
For CC(CC(=O)c1ccccc1)=NCCCCN=C(C)CC(=O)c1ccccc1, the T/C (dose: 25.0 mg/kg/injection, schedule: Q04DX002 (ip), vehicle: saline with Tween-80) was 104 % of control, the T/C (dose: 25.0 mg/kg/injection, schedule: Q04DX003 (ip), vehicle: saline with Tween-80) was 101 % of control and the T/C [10] was 91 % of control. The T/C (dose: 50.0 mg/kg/injection, schedule: Q04DX002 (ip), vehicle: saline with Tween-80) was 96 % of control, the T/C (dose: 50.0 mg/kg/injection, schedule: Q04DX003 (ip), vehicle: saline with Tween-80) was 95 % of control and the T/C [11] was 95 % of control. The T/C (dose: 100.0 mg/kg/injection, schedule: Q04DX002 (ip), vehicle: saline with Tween-80) was 105 % of control, the T/C [7] was 92 % of control and the T/C [12] was 88 % of control. The T/C (dose: 200.0 mg/kg/injection, schedule: Q04DX002 (ip), vehicle: saline with Tween-80) was 98 % of control.
In the case of COc1ccccc1N=NC(C#N)C(N)=O (stereo not given), the T/C [2] was 102 % of control and the T/C [3] was 101 % of control.
In the case of COc1ccccc1-n1cccc(C#N)c1=S, the T/C [13] was 98 % of control, the T/C [14] was 91 % of control and the T/C (dose: 240.0 mg/kg/injection, schedule: Q01DX005 (ip), vehicle: Klucel (hydroxypropylcellulose) (HPC)) was 89 % of control.
Cc1ccc(NC(=O)N2c3ccccc3SC2c2ccco2)c(C)c1 (stereo not given) was tested, and the T/C [1] was 92 % of control, the T/C [2] was 103 % of control and the T/C [3] was 86 % of control and 92 % of control.
With CCC[C@H]1[C@H](CCC)[C@@]2(OC(=O)C3=C2CCC=C3)[C@]12OC(=O)C1=C2CCC=C1 the T/C (dose: 11.25 mg/kg/injection, schedule: Q01DX005 (ip), vehicle: Klucel (hydroxypropylcellulose) (HPC)) was 98 % of control, the T/C (dose: 22.5 mg/kg/injection, schedule: Q01DX005 (ip), vehicle: Klucel (hydroxypropylcellulose) (HPC)) was 90 % of control and the T/C (dose: 45.0 mg/kg/injection, schedule: Q01DX005 (ip), vehicle: Klucel (hydroxypropylcellulose) (HPC)) was 88 % of control. For the same compound, the T/C (dose: 90.0 mg/kg/injection, schedule: Q01DX005 (ip), vehicle: Klucel (hydroxypropylcellulose) (HPC)) was 100 % of control.
CC1(C)OCC2CCC=C21 (stereo not given) was tested, and the T/C (dose: 60.0 mg/kg/injection, schedule: Q01DX005 (ip), vehicle: saline with Tween-80) was 92 % of control, the T/C (dose: 120.0 mg/kg/injection, schedule: Q01DX005 (ip), vehicle: saline with Tween-80) was 99 % of control and the T/C (dose: 240.0 mg/kg/injection, schedule: Q01DX005 (ip), vehicle: saline with Tween-80) was 97 % of control.
